Source: ChEMBL document CHEMBL2203275, “Design and synthesis of novel bis-thiazolone derivatives as micromolar CDC25 phosphatase inhibitors: effect of dimerisation on phosphatase inhibition” (Bioorg Med Chem Lett, 2012)
Values belong to the compound of their own block, whether it stands above or below them.

Assays:
[1] = target: T1, Tyrosine-protein phosphatase non-receptor type 1 (Homo sapiens, UniProt P18031); test: Inhibition of PTP1B using fluorescein 3,6 diphosphate as substrate measured for 1 hr in presence of 1 mM dithiothreitol
T1 sequence (P18031 whole entry): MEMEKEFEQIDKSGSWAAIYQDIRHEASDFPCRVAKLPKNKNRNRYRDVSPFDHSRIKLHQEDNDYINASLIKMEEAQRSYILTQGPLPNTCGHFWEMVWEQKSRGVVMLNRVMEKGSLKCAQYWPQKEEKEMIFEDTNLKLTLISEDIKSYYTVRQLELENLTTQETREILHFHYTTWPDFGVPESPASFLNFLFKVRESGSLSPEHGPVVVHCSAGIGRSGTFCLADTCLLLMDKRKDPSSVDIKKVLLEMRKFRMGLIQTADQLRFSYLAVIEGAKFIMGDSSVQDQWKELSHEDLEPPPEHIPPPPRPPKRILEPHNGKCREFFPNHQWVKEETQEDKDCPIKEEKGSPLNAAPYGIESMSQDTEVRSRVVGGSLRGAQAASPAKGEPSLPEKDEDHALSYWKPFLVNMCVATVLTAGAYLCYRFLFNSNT

[2] = target: T2, Tyrosine-protein phosphatase non-receptor type 1 (Homo sapiens) (UniProt P18031); test: Inhibition of PTP1B using fluorescein 3,6 diphosphate as substrate at 100 uM measured for 1 hr in presence of 1 mM dithiothreitol
T2 sequence (whole entry): T1 sequence (P18031 whole entry)

[3] = target: T3, M-phase inducer phosphatase 2 (Homo sapiens, UniProt P30305); test: Inhibition of MBP-fused recombinant wild type CDC25B3 using fluorescein 3,6 diphosphate as substrate measured for 30 mins in presence of 1 mM dithiothreitol
T3 sequence (P30305 whole entry): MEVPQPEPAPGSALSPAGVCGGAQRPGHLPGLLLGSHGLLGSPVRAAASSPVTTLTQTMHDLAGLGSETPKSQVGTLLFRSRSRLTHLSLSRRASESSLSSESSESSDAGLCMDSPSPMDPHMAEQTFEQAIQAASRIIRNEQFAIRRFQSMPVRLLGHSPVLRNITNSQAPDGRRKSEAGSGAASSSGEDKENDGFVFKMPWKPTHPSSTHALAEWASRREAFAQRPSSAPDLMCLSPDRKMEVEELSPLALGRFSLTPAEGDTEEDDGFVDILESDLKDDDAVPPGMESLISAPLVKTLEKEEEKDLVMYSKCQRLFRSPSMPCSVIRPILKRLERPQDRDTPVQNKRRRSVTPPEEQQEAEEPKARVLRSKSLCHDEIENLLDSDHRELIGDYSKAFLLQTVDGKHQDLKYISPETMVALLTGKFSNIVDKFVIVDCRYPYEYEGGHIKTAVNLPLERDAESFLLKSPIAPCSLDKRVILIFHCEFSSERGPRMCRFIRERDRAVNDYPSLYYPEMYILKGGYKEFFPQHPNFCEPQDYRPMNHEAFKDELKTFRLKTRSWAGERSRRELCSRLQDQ

[4] = target: T4, Dual specificity protein phosphatase 3 (Homo sapiens, UniProt P51452); test: Inhibition of VHR using fluorescein 3,6 diphosphate as substrate at 100 uM measured for 1 hr in presence of 1 mM dithiothreitol
Target sequence in this assay (P51452 whole entry, looked up): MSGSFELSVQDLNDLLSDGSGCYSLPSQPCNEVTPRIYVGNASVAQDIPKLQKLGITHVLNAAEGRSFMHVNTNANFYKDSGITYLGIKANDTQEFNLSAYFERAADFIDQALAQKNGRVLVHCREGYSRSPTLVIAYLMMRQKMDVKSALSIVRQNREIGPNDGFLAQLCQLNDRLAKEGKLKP

[5] = target: T4, Dual specificity protein phosphatase 3; test: Inhibition of VHR using fluorescein 3,6 diphosphate as substrate measured for 1 hr in presence of 1 mM dithiothreitol
Target sequence in this assay (P51452 whole entry): as the sequence (P51452 whole entry, looked up) above

[6] = target: T2, Tyrosine-protein phosphatase non-receptor type 1 (Homo sapiens); test: Inhibition of PTP1B using fluorescein 3,6 diphosphate as substrate at 50 uM measured for 1 hr in presence of 1 mM dithiothreitol
[7] = target: T2, Tyrosine-protein phosphatase non-receptor type 1 (Homo sapiens); test: Inhibition of PTP1B using fluorescein 3,6 diphosphate as substrate at 10 uM measured for 1 hr in presence of 1 mM dithiothreitol
[8] = target: T3, M-phase inducer phosphatase 2; test: Inhibition of MBP-fused recombinant wild type CDC25B3 using fluorescein 3,6 diphosphate as substrate measured for 30 mins in presence of 10 mM dithiothreitol
[9] = target: T3, M-phase inducer phosphatase 2; test: Inhibition of MBP-fused recombinant wild type CDC25B3 using fluorescein 3,6 diphosphate as substrate measured for 30 mins in presence of 20 mM dithiothreitol
[10] = target: T4, Dual specificity protein phosphatase 3; test: Inhibition of VHR using fluorescein 3,6 diphosphate as substrate at 10 uM measured for 1 hr in presence of 1 mM dithiothreitol
Target sequence in this assay (P51452 whole entry, looked up): as above

[11] = target: T5, M-phase inducer phosphatase 2 (Homo sapiens) (UniProt P30305); test: Inhibition of MBP-fused recombinant wild type CDC25B3 using fluorescein 3,6 diphosphate as substrate at 100 uM measured for 30 mins in presence of 1 mM dithiothreitol
T5 sequence (whole entry): T3 sequence (P30305 whole entry)

Compound: O=C1N=C(NCCCCCCCNC2=NC(=O)/C(=C/c3ccc(-c4ccccc4)o3)S2)S/C1=C\c1ccc(-c2ccccc2)o1
inhibition [2]: 50%

Compound: CC1=CC(=O)c2ccccc2C1=O [MENADIONE]
IC50 [3]: 2.2 µM

Compound: CCCCNC1=NC(=O)/C(=C/c2ccc(O)cc2)S1
inhibition [2]: 35%

Compound: O=C1N=C(NCCN2CCN(CCNC3=NC(=O)/C(=C/c4ccc(O)cc4)S3)CC2)S/C1=C\C=C\c1ccco1
inhibition [2]: 39%

Compound: O=C1N=C(NCCCCCCCNC2=NC(=O)/C(=C/c3ccc4c(c3)OCO4)S2)S/C1=C\c1ccc2c(c1)OCO2
inhibition [2]: 30%
inhibition [4]: 27%
IC50 [3]: 13.8 µM

Compound: O=C1N=C(NCCCCCCCNC2=NC(=O)/C(=C/C=C/c3ccccc3)S2)S/C1=C\C=C\c1ccccc1
inhibition [2]: 51%
inhibition [4]: 34%
IC50 [3]: 7.7 µM

Compound: CNC1=NC(=O)/C(=C/c2ccc(O)cc2)S1
inhibition [2]: 32%

Compound: O=C1N=C(NCCN2CCN(CCNC3=NC(=O)/C(=C/c4cc(Br)c(O)c(Br)c4)S3)CC2)S/C1=C\c1ccc(O)cc1
inhibition [2]: 100%
inhibition [7]: 33%

Compound: O=C1N=C(NCCN2CCN(CCNC3=NC(=O)/C(=C/c4ccc5c(c4)OCO5)S3)CC2)S/C1=C\c1ccc(O)cc1
inhibition [2]: 19%
inhibition [4]: 29%
IC50 [3]: 4.4 µM

Compound: O=C1N=C(NCCN2CCN(CCNC3=NC(=O)/C(=C/c4ccc(O)cc4)S3)CC2)S/C1=C\C=C\c1ccccc1
inhibition [2]: 13%

Compound: COc1cc(/C=C2\SC(NCCCCCCCNC3=NC(=O)/C(=C/c4cc(OC)c(O)c(OC)c4)S3)=NC2=O)cc(OC)c1O
inhibition [2]: 2%

Compound: CCCCCNC1=NC(=O)/C(=C/c2ccc(O)cc2)S1
inhibition [2]: 35%

Compound: O=C1N=C(NCCCCCCCNC2=NC(=O)/C(=C/c3cc(Br)c(O)c(Br)c3)S2)S/C1=C\c1cc(Br)c(O)c(Br)c1
IC50 [8]: 3.1 µM
IC50 [9]: 3.2 µM
inhibition [10]: 31%
inhibition [4]: 100%
IC50 [3]: 1.38 µM
IC50 [1]: 24.2 µM

Compound: O=C1N=C(NCc2ccccc2)S/C1=C\c1ccc(O)cc1
inhibition [2]: 46%
inhibition [11]: 45%
inhibition [4]: 8%

Compound: O=C1N=C(NCCN2CCN(CCNC3=NC(=O)/C(=C/c4ccc5[nH]ncc5c4)S3)CC2)S/C1=C\c1ccc(O)cc1
inhibition [2]: 18%

Other lines, results leading:

IC50 [1]: 9.1 µM
Compound: O=C1N=C(NCc2cccc(CNC3=NC(=O)/C(=C/c4ccc(O)cc4)S3)c2)S/C1=C\c1ccc(O)cc1

IC50 [1]: 6.2 µM
Compound: O=C1N=C(NCCCCCCCCCNC2=NC(=O)/C(=C/c3ccc(O)cc3)S2)S/C1=C\c1ccc(O)cc1

IC50 [1]: 30.6 µM
Compound: O=C1N=C(NCCCCCCCNC2=NC(=O)/C(=C/c3ccc(O)cc3)S2)S/C1=C\c1ccc(O)cc1

IC50 [5]: 75.8 µM
IC50 [3]: 13.9 µM
IC50 [1]: 20.6 µM
Compound: O=C1N=C(NCCCCCNC2=NC(=O)/C(=C/c3ccc(O)cc3)S2)S/C1=C\c1ccc(O)cc1

IC50 [1]: 26.9 µM
Compound: O=C(O)/C=C/c1ccc(/C=C2\SC(NCCCCCCCNC3=NC(=O)/C(=C/c4ccc(/C=C/C(=O)O)cc4)S3)=NC2=O)cc1

inhibition [6]: 25%
Compound: O=C1N=C(NCCCn2cc(CNC3=NC(=O)/C(=C/c4ccc(O)cc4)S3)nn2)S/C1=C\c1ccc(O)cc1

inhibition [6]: 35%
Compound: O=C1N=C(NCCCc2cn(CCNC3=NC(=O)/C(=C/c4ccc(O)cc4)S3)nn2)S/C1=C\c1ccc(O)cc1

inhibition [4]: 55%
IC50 [3]: 20.6 µM
inhibition [6]: 20%
Compound: O=C1N=C(NCCCn2cc(CCNC3=NC(=O)/C(=C/c4ccc(O)cc4)S3)nn2)S/C1=C\c1ccc(O)cc1

IC50 [1]: 23.4 µM
Compound: O=C1N=C(NCCCCCCCNC2=NC(=O)/C(=C/c3ccc(O)c(O)c3)S2)S/C1=C\c1ccc(O)c(O)c1

inhibition [6]: 50%
Compound: O=C1N=C(NCCCc2cn(CCCNC3=NC(=O)/C(=C/c4ccc(O)cc4)S3)nn2)S/C1=C\c1ccc(O)cc1

IC50 [1]: 12.4 µM
Compound: O=C1N=C(NCCCCCCNC2=NC(=O)/C(=C/c3ccc(O)cc3)S2)S/C1=C\c1ccc(O)cc1

IC50 [1]: 28.4 µM
Compound: O=C1N=C(NCCCCNC2=NC(=O)/C(=C/c3ccc(O)cc3)S2)S/C1=C\c1ccc(O)cc1

IC50 [1]: 41.3 µM
Compound: O=C1N=C(NCCCCCCCNC2=NC(=O)/C(=C/c3ccccc3)S2)S/C1=C\c1ccccc1

inhibition [4]: 29%
IC50 [3]: 3.9 µM
IC50 [1]: 11.6 µM
Compound: O=C1N=C(NCCCCCCCCNC2=NC(=O)/C(=C/c3ccc(O)cc3)S2)S/C1=C\c1ccc(O)cc1

inhibition [4]: 30%
IC50 [3]: 6.6 µM
IC50 [1]: 9 µM
Compound: O=C1N=C(NCC2CCCC(CNC3=NC(=O)/C(=C/c4ccc(O)cc4)S3)C2)S/C1=C\c1ccc(O)cc1 (stereo not drawn)

IC50 [1]: 46 µM
Compound: O=C1N=C(NCCN2CCN(CCNC3=NC(=O)/C(=C/c4ccc(O)cc4)S3)CC2)S/C1=C\c1ccc(O)cc1
